From US8609666B2, “2-morpholino-pyrido[3,2-D]pyrimidines” (Merck Serono SA, priority 2009, dated 2013)

Molecular target: CK2 protein kinase
Assay: not given
Settings: Fruman et al., 1998; cited from earlier work

Row | Structure (SMILES) | IC50
1 | O=c1cc(N2CCOCC2)oc2c(-c3ccccc3)cccc12 [LY294002] | 5 to 10 µM

Tested on: Human recombinant GST-PI3K
Assay: PI3K induced-lipid phosphorylation scintillation proximity assay (neomycin-coated SPA beads)
Assay type: biochemical
Settings: amount necessary to achieve 50% inhibition of PI3K; 120 min at room temperature
Text: The efficacy of compounds of the invention in inhibiting the PI3K induced-lipid phosphorylation may be tested in the following binding assay. The assay combines the scintillation proximity assay technology (SPA, Amersham) with the capacity of neomycin (a polycationic antibiotic) to bind phospholipids with high affinity and specificity. The Scintillation Proximity Assay is based on the properties of weakly emitting isotopes (such as ^3H, ^125I, ^33P). Coating SPA beads with neomycin allows the detection of phosphorylated lipid substrates after incubation with recombinant PI3K and radioactive ATP in the same well, by capturing the radioactive phospholipids to the SPA beads through their specific binding to neomycin. To a 96 wells MTP containing 10 μl of the test compound of Formula (I) (solubilized in 10% DMSO; to yield a concentration of 100, 25, 5.0, 1.25, 0.312, 0.078, 0.0195, 0.00488, 0.00122 and 0.0003 μM of the test compound), the following assay components are added: 1) 10 μL of lipid micelles 2) […] of Kinase buffer ([^33P]γATP162 μM/300 nCi, MgCl2 2.5 mM, DTT 2.5 mM, Na3VO4 25 μM in Hepes 40 mM, pH 7.4) and 3) 10 μL (100 ng) of Human recombinant GST-PI3K (in Hepes 40 mM, pH 7.4, ethylenglycol 4%). After incubation at room temperature for 120 minutes, with gentle agitation, the reaction is stopped by addition of 200 μL of a solution containing 250 μg of neomycin-coated PVT SPA beads, ATP 60 mM and EDTA 6.2 mM in PBS. The assay is further incubated at room temperature for 60 minutes with gentle agitation to allow binding of phospholipids to neomycin-SPA beads. After precipitation of the neomycin-coated PVT SPA beads for 5 minutes at 1500×g, radioactive PtdIns(3)P is quantified by scintillation counting in a Wallac MicroBeta™ plate counter. The values indicated in Table I below refer to the IC50 (μM) with respect to PI3K, i.e. the amount necessary to achieve 50% inhibition of said target. Said values show a considerable inhibitory potency of pyridopyrimidine compounds with regard to PI3K.

Row | IC50 | Structure (SMILES)
2 | 335 nM | CS(=O)(=O)c1cc(C(=O)O)nc2c(-c3ccc(O)c(F)c3)nc(N3CCOCC3)nc12 [Example 45, 4-(3-Fluoro-4-hydroxyphenyl)-8-(methylsulfonyl)-2-morpholin-4-ylpyrido[3,2-d]pyrimidine-6-carboxylic acid]
3 | 220 nM | CN(CCO)c1cc(C(=O)O)nc2c(-c3ccc(F)cc3O)nc(N3CCOCC3)nc12 [Example 59, 4-(4-Fluoro-2-hydroxyphenyl)-8-[(2-hydroxyethyl)(methyl)amino]-2-morpholin-4-ylpyrido[3,2-d]pyrimidine-6-carboxylic acid]
4 | 936 nM | Cc1cc(O)ccc1-c1nc(N2CCOCC2)nc2c(N(C)CCO)cc(C(=O)O)nc12 [Example 58, 8-[(2-Hydroxyethyl)(methyl)amino]-4-(4-hydroxy-2-methylphenyl)-2-morpholin-4-ylpyrido[3,2-d]pyrimidine-6-carboxylic acid]
5 | 48 nM | CNc1cc(C(=O)O)nc2c(-c3cccc(F)c3O)nc(N3CCOCC3)nc12 [Example 35, 4-(3-Fluoro-2-hydroxyphenyl)-8-(methylamino)-2-morpholin-4-ylpyrido[3,2-d]pyrimidine-6-carboxylic acid]
6 | 30 nM | CS(=O)(=O)N1CCN(c2cc(C(=O)O)nc3c(-c4ccccc4)nc(N4CCOCC4)nc23)CC1 [Example 67, 8-[4-(Methylsulfonyl)piperazin-1-yl]-2-morpholin-4-yl-4-phenylpyrido[3,2-d]pyrimidine-6-carboxylic acid]
7 | 63 nM | O=C(O)c1ccc2nc(N3CCOCC3)nc(-c3cccc(O)c3)c2n1 [Example 41, 4-(3-Hydroxyphenyl)-2-morpholin-4-ylpyrido[3,2-d]pyrimidine-6-carboxylic acid]
8 | 18 nM | COCCNc1cc(C(=O)O)nc2c(-c3cccc(F)c3O)nc(N3CCOCC3)nc12 [Example 36, 4-(3-Fluoro-2-hydroxyphenyl)-8-[(2-methoxyethyl)amino]-2-morpholin-4-ylpyrido[3,2-d]pyrimidine-6-carboxylic acid]
9 | 1850 nM | COCc1cccc(-c2nc(N3CCOCC3)nc3c(N(C)CCO)cc(C(=O)O)nc23)c1 [Example 27, 8-[(2-Hydroxy-ethyl)-methyl-amino]-4-(3-methoxymethyl-phenyl)-2-morpholin-4-yl-pyrido[3,2-d]pyrimidine-6-carboxylic acid]
